The values that follow come from BindingDB's records for doi:10.1021/acs.jmedchem.1c00926 (Biogen, 2022).

A word on the IC50: it is the concentration needed to halve the response being measured. A high value points to lower potency.

This experiment in a line: Inhibition of CD69 in human whole blood preincubated for 30 mins followed by anti-human IgD stimulation and measured after 18 to 22 hrs by flow cytometry.
As for `Cc1c(NC(=O)c2cc3c(s2)CCCC3)cccc1-c1cn(C)c(=O)c(Nc2ccc(C3CN(C)CC(=O)N3C)cc2)n1` (centres undefined), the IC50 amounted to 1.2 µM.
With `CC(C)OC1CN(C(=O)N[C@@H]2CCCCc3cc(-c4ccnc(Nc5cnn(C)c5)n4)ccc32)C1`, inhibition was half-maximal at 0.4 µM (IC50).
The same measure for `Cn1cc(Nc2nccc(-c3ccc4c(c3)CCCCC4NC(=O)N3CC[C@@H](C(C)(C)C)C3)n2)cn1` (some centres undefined): 0.04 µM; for `Cn1cc(Nc2nccc(-c3ccc4c(c3)CCCCC4NC(=O)c3cnc(C(C)(C)C)nc3)n2)cn1` (centres undefined): > 10 µM.
The compound `Cn1cc(Nc2nccc(-c3ccc4c(c3)CCCC[C@H]4NC(=O)c3nc(C(C)(C)C)no3)n2)cn1` returned an IC50 of 0.059 µM.
In turn, `Cn1cc(Nc2nccc(-c3ccc4c(c3)CCCC[C@H]4NC(=O)c3cn(C(C)(C)C)nn3)n2)cn1` gave a 50% inhibitory concentration (IC50) of 0.104 µM.
`Cn1cc(Nc2nccc(-c3ccc4c(c3)CCNC[C@H]4NC(=O)c3cn(C(C)(C)C)nn3)n2)cn1` registered an IC50 of 0.4 µM.
Take `Cn1cc(Nc2nccc(-c3ccc4c(c3)CNCC[C@H]4NC(=O)c3cn(C(C)(C)C)nn3)n2)cn1`: the IC50 is 1.6 µM.
The compound `CN1CCc2cc(-c3ccnc(Nc4cnn(C)c4)n3)ccc2[C@H](NC(=O)c2cn(C(C)(C)C)nn2)C1` displayed an IC50 of 0.7 µM.
In turn, `Cn1cc(Nc2nccc(-c3ccc4c(c3)CCCCC4NC(=O)c3cn(C(C)(C)C)nn3)n2)cn1` (centres undefined) [1-(tert-butyl)-N-(2-(2-((1-methyl-1H-pyrazol-4-yl)amino)pyrimidin-4-yl)-6,7,8,9-tetrahydro-5H-benzo[7]annulen-5-yl)-1H-1,2,3-triazole-4-carboxamide] yielded an IC50 of 0.86 µM.
Compound `Cn1cc(Nc2nccc(-c3ccc4c(c3)CCCCC4NC(=O)c3nc(C(C)(C)C)no3)n2)cn1` (centres undefined) [3-(tert-butyl)-N-(2-(2-((1-methyl-1H-pyrazol-4-yl)amino)pyrimidin-4-yl)-6,7,8,9-tetrahydro-5H-benzo[7]annulen-5-yl)-1,2,4-oxadiazole-5-carboxamide ] had an IC50 of 0.22 µM.
Consider `Cn1cc(Nc2nccc(-c3ccc4c(c3)CCCCC4NC(=O)c3nnc(C(C)(C)C)o3)n2)cn1` (centres undefined) [5-(tert-butyl)-N-(2-(2-((1-methyl-1H-pyrazol-4-yl)amino)pyrimidin-4-yl)-6,7,8,9-tetrahydro-5H-benzo[7]annulen-5-yl)-1,3,4-oxadiazole-2-carboxamide], for which the half-maximal inhibitory concentration (IC50) stood at 0.39 µM.
`COCCN1CC[C@@H](NC(=O)c2cn(C(C)(C)C)nn2)c2ccc(-c3ccnc(Nc4cnn(C)c4)n3)cc2C1` [(R)-1-(tert-butyl)-N-(2-(2-methoxyethyl)-8-(2-((1-methyl-1H-pyrazol-4-yl)amino)pyrimidin-4-yl)-2,3,4,5-tetrahydro-1H-benzo[c]azepin-5-yl)-1H-1,2,3-triazole-4-carboxamide ] returned an IC50 of 0.8 µM.
In turn, `Cn1cc(Nc2nccc(-c3ccc4c(c3)CCCC[C@H]4NC(=O)c3nnc(C(C)(C)C)o3)n2)cn1` [(R)-5-(tert-butyl)-N-(2-(2-((1-methyl-1H-pyrazol-4-yl)amino)pyrimidin-4-yl)-6,7,8,9-tetrahydro-5H-benzo[7]annulen-5-yl)-1,3,4-oxadiazole-2-carboxamide ] had an IC50 of 0.33 µM.
